Assay [1] deals with T1, Chromosome-associated kinesin KIF4A (Homo sapiens) (UniProt O95239).
T1 sequence (whole entry): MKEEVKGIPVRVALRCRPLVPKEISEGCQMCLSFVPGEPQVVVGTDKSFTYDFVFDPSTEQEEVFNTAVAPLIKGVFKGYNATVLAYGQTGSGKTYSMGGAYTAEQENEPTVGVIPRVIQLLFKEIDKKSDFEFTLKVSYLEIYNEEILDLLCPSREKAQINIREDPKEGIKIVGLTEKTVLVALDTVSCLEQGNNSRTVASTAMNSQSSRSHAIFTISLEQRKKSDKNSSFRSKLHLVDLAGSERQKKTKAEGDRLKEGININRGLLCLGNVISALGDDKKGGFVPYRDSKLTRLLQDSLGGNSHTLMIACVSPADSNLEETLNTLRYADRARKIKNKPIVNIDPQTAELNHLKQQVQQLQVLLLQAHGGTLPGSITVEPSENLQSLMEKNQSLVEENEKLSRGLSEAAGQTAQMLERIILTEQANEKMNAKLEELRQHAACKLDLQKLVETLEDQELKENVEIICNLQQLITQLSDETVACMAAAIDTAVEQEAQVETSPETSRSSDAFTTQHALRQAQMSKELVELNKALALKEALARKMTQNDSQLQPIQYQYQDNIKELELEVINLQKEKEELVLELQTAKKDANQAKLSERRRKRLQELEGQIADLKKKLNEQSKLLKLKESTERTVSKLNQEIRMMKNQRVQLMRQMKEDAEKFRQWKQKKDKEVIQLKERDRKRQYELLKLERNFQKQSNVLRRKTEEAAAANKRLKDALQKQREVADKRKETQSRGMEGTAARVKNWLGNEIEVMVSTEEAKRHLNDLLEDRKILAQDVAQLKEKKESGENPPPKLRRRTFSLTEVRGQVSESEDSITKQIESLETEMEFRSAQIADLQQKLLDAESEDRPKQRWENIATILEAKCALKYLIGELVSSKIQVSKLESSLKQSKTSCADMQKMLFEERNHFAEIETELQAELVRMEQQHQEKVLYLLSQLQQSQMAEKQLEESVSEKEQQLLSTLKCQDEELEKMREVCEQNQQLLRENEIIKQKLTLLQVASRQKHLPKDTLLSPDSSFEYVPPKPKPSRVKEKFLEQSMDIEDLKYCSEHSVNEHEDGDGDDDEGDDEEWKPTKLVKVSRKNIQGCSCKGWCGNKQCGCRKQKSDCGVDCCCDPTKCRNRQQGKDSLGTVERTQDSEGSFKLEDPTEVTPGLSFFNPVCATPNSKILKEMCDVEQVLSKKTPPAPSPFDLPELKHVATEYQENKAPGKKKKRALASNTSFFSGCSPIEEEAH
The experiment in a line: Inhibition of Kif4 at 10 uM by puruvate kinsase-lactate dehydrogenase detection system.

For assay [2], the target named is T2, Kinesin-like protein KIF11 (Homo sapiens) (UniProt P52732).
T2 sequence (whole entry): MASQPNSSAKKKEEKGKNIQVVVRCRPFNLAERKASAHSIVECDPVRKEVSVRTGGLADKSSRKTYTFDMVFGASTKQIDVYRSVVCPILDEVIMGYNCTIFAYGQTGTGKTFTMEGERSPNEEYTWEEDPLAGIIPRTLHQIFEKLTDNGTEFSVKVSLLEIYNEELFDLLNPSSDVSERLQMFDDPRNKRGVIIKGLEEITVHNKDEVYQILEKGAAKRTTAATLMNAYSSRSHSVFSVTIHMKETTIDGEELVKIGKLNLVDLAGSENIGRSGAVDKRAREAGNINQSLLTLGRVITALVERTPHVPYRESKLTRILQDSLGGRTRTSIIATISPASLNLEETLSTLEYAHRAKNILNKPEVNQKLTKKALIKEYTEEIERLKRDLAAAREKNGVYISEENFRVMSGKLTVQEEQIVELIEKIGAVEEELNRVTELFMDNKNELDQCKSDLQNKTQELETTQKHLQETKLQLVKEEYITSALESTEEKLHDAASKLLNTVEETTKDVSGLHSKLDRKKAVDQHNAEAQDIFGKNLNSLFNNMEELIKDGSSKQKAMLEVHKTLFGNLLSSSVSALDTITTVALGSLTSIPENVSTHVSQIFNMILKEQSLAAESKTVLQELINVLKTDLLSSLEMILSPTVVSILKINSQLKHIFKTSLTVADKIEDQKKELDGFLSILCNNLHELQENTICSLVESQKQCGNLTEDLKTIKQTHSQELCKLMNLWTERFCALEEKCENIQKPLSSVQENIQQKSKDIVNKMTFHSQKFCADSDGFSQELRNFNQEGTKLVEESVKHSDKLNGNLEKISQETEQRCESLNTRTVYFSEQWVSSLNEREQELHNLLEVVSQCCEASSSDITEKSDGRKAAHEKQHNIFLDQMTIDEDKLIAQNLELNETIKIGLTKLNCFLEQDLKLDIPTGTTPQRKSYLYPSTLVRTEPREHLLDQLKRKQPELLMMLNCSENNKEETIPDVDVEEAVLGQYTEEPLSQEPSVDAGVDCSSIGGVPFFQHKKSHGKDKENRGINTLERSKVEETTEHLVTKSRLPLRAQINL
Put plainly: Inhibition of Eg5 at 10 uM by puruvate kinsase-lactate dehydrogenase detection system.

The target in assay [3] is Kinesin-like protein KIF11 (Homo sapiens, UniProt P52732, A133D). Put plainly: Inhibition of human KSP A133D mutant using varying ATP levels in presence of saturating levels of microtubule by Lineweaver-Burke plot.
Chain of Kinesin-like protein KIF11 (Homo sapiens, UniProt P52732, A133D) (P52732 whole entry A133D): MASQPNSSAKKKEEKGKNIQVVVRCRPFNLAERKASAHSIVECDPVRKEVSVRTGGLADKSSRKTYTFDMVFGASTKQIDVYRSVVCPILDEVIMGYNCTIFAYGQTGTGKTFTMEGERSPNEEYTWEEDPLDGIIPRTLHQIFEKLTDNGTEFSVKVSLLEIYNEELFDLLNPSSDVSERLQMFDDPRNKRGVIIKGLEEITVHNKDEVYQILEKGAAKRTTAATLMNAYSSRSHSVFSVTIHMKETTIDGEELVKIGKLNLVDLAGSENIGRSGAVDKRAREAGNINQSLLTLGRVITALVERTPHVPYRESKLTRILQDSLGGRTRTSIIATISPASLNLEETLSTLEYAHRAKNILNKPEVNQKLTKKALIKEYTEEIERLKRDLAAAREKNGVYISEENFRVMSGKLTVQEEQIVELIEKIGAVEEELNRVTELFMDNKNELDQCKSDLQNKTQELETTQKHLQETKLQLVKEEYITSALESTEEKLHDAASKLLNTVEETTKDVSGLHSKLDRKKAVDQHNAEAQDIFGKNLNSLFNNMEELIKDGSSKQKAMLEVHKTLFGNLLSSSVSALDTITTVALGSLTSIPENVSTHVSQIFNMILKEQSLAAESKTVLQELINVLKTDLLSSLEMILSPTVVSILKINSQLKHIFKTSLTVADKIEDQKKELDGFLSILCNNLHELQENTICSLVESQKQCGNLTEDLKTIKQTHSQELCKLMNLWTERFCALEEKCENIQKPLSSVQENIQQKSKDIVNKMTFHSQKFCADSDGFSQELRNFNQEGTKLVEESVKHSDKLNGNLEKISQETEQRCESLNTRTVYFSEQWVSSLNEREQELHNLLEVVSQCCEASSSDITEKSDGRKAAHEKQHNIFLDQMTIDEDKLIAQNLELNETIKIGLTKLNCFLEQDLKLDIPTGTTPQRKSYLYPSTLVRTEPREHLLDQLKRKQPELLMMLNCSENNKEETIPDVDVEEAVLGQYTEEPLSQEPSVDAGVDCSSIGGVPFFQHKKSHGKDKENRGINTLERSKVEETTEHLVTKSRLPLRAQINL
The target of assay [4] is T2, Kinesin-like protein KIF11 (Homo sapiens). The experiment in a line: Competitive inhibition of human wild type Eg5 with respect to ATP using varying ATP levels in presence of saturating levels of microtubule by Lineweaver-Burke plot.
The next assay is filed under the species Homo sapiens. Put plainly: Uncompetitive inhibition of human KSP KHC-L5 mutant with respect to microtubule using varying ATP levels in presence of saturating levels of microtubule by Lineweaver-Burke plot.
Assay [5] concerns the target Kinesin-like protein KIF11 (Homo sapiens, UniProt P52732, D130V). Put plainly: Inhibition of human KSP D130V mutant using varying ATP levels in presence of saturating levels of microtubule by Lineweaver-Burke plot.
Assay [6] in a line: Inhibition of human KSP KHC-L5 mutant using varying ATP levels in presence of saturating levels of microtubule by Lineweaver-Burke plot.

Active and inactive are the calls of the source. The rule behind the calls is not given here.

Our source for the inhibition and Ki values is ChEMBL document CHEMBL1221208, “ATP-competitive inhibitors of the mitotic kinesin KSP that function via an allosteric mechanism” (Nat Chem Biol, 2007).

Chain of Kinesin-like protein KIF11 (Homo sapiens, UniProt P52732, D130V) (P52732 whole entry D130V): as the sequence (P52732 whole entry A133D) above, with D130V, D133A counted along it

Consider `Cc1ccc(C(=O)N(CCCN)[C@@H](c2nc3cc(Cl)ccc3c(=O)n2Cc2ccccc2)C(C)C)cc1`, for which the results for the inhibition in assay [1] and in assay [2] were 4.3% and 99.6%, respectively.
On to `NC(=O)Nc1ccc(-c2ccc(C(F)(F)F)cc2)cc1F`, for which the figures for the inhibition in assay [1] and in assay [2] were 8.2% and 99.4%, respectively. In addition, the Ki was 6.8 nM in assay [3], 10 nM in assay [5] and 6 nM in assay [6]. Moreover, the inhibition result (in assay [4]; in the assay filed under Homo sapiens) was “Active” each time.
Turning to `O=C1CCc2cc(-c3ccc(C(F)(F)F)cc3)ccc2N1`, the inhibition was found to be 6.5% in assay [1] and 99.3% in assay [2]. Moreover, the Ki in assay [3] is 1.4 nM; in assay [5] it was 2.2 nM; in assay [6], 2.1 nM. Further, the inhibition result (in assay [4]; in the assay listed under Homo sapiens) was “Active” in each case.
